From patent US20100035904A1, “PHE[…]; METHODS OF MAKING; AND METHODS OF USE THEREOF” (priority 2008, published 2010)
Where a name gives a salt, the structure may show the parent alone.

Assays:
[1] = Analysis of residual solids from water slurry (XRPD, 1H-NMR) for form conversion; assay type: physicochemical; settings: water slurry overnight, ambient temperature
[2] = Moisture sorption experiments; assay type: physicochemical; settings: for hygroscopicity (moisture sorption analysis): 0-90% RH; for XRPD pattern of material following the moisture sorption experiment: after sorption/desorption and drying
Experimental: Moisture sorption experiments are carried out on about 10 milligrams (mg) of sample in a Pyrex bulb by first equilibrating the sample at 25° C./40% relative humidity (RH) until an equilibrium weight is reached. The sample is then subjected to an isothermal (25° C.) adsorption scan from 40 to 90% RH in steps of 10% RH. The sample is allowed to equilibrate to either an asymptotic weight or a maximum of four hours for each relative humidity. A desorption scan from 90 to 0% RH (at 25° C.) is then run in steps of −10% again allowing a maximum of four hours for equilibration or an asymptotic weight. Following desorption, an adsorption scan is performed from 0% RH to the initial 40% RH. The sample is then dried for one hour at 80° C. to obtain the dry weight.

[3] = Stability of the salt in seven day toluene slurry (XRPD); assay type: physicochemical; settings: ambient temperature, seven days
Experimental: Stability of the salt is evaluated using a seven day toluene slurry. Each salt (about 10-20 mg) is slurried in 250 microliters of toluene at ambient temperature for seven days in a 4 ml vial. After seven days, each sample is filtered and dried overnight at ambient temperature under vacuum. The samples are then analyzed by XRPD.

[4] = background statement; cited from earlier work

Molecule | stability of the salt in water slurry (conclusion) [1] | hygroscopicity (moisture sorption analysis) ([2]; 25° C.) | water adsorbed at 90% RH ([2]; 25° C.) | XRPD pattern of material following the moisture sorption experiment [2] | water adsorbed between 10-60% RH ([2]; 25° C., 10-60% RH) | water content at which the desorption curve stabilizes ([2]; desorption, 40-5% RH) | XRPD of material following seven day toluene slurry [3] | hygroscopicity / stability in humid environments [4]
CCC1(c2ccccc2)C(=O)NC(=O)NC1=O [phenobarbital potassium salt, phenobarbital potassium] | potential dissociation |  |  |  |  |  |  | 
phenobarbital benzathine | remained stable | nonhygroscopic | 1.0 wt % | consistent with the initial material |  |  |  | 
CCC1(c2ccccc2)C(=O)NC(=O)NC1=O [phenobarbital sodium salt, phenobarbital sodium] |  | hygroscopic | approximately 34 wt % | shows differences in comparison to the diffraction pattern of the initial material | approximately 2 wt % | approximately 12 wt % | amorphous | 
CCC1(c2ccccc2)C(=O)NC(=O)NC1=O [Phenobarbital free form, 5-ethyl-5-phenyl-2,4,6(1H,3H,5H)-pyrimidinetrione, reference compound] |  | nonhygroscopic | 0.1 wt % | consistent with the initial phenobarbital starting material |  |  |  | 
phenobarbital betaine [phenobarbital betaine salt] | salt dissociation | hygroscopic | 28.1 wt % | consistent with the initial material |  |  | consistent with the initial material | 
CCC1(c2ccccc2)C(=O)[N-]C(=O)NC1=O.C[N+](C)(C)CCO [phenobarbital choline salt, phenobarbital choline] | remained stable | hygroscopic | 23 wt % | consistent with the initial material |  |  | consistent with the initial material | 
CCC1(c2ccccc2)C(=O)NC(=O)NC1=O [Phenobarbital sodium] |  |  |  |  |  |  |  | hygroscopic and degrades when exposed to humid environments
